# Target: Prothrombin (Homo sapiens) (UniProt P00734)
# Assay: Binding affinity for human Prothrombin as apparent association constant (Kass)
row,SMILES,K ass
1,C[C@@H](COc1ccc(Cc2c(-c3ccc(OCCN4CCCC4)cc3)sc3ccccc23)cc1)N1CCCC1,9.07e+06 l M-1
2,C[C@H](COc1ccc(Cc2c(-c3ccc(OCCN4CCCC4)cc3)sc3ccccc23)cc1)N1CCCC1,4.17e+06 l M-1
3,c1ccc2c(Cc3ccc(O[C@@H]4CCCC[C@H]4N4CCCC4)cc3)c(-c3ccc(OCCN4CCCC4)cc3)sc2c1,2.4e+07 l M-1
4,C(=C\c1ccc(Cc2c(-c3ccc(OCCN4CCCC4)cc3)sc3ccccc23)cc1)/CN1CCCC1 (stereo in doubt; trans),1.32e+07 l M-1
5,CC(C)(COc1ccc(Cc2c(-c3ccc(OCCN4CCCC4)cc3)sc3ccccc23)cc1)N1CCCC1,4.69e+06 l M-1
6,c1ccc2c(Cc3ccc(CCCN4CCCC4)cc3)c(-c3ccc(OCCN4CCCC4)cc3)sc2c1,6.7e+06 l M-1
7,C(=C\c1ccc(Cc2c(-c3ccc(OCCN4CCCC4)cc3)sc3ccccc23)cc1)/CN1CCCC1 (stereo in doubt; cis),9.8e+06 l M-1
8,c1ccc2c(Cc3ccc(O[C@@H]4CCC[C@H]4N4CCCC4)cc3)c(-c3ccc(OCCN4CCCC4)cc3)sc2c1,2.74e+07 l M-1
9,CCC(CN1CCCC1)Oc1ccc(Cc2c(-c3ccc(OCCN4CCCC4)cc3)sc3ccccc23)cc1 (configuration not stated),1.23e+07 l M-1
10,CCC(COc1ccc(Cc2c(-c3ccc(OCCN4CCCC4)cc3)sc3ccccc23)cc1)N1CCCC1 (configuration not stated),2.81e+07 l M-1
11,CC(COc1ccc(Cc2c(-c3ccc(OCCN4CCCC4)cc3)sc3ccccc23)cc1)N1CCCC1 (configuration not stated),7.34e+06 l M-1
12,C(#Cc1ccc(Cc2c(-c3ccc(OCCN4CCCC4)cc3)sc3ccccc23)cc1)CN1CCCC1,4.84e+06 l M-1

# Source: ChEMBL document CHEMBL1131921, “Diamino benzo[b]thiophene derivatives as a novel class of active site directed thrombin inhibitors: 3. Enhancing activity by imposing conformational restriction in the C-4" side chain” (Bioorg Med Chem Lett, 1999)
